Test results from US9834514B2, “Antibiotic sensitivity-restoring and photosensitive agents” (New Mexico Tech Research Foundation, priority 2015, dated 2017).
Converted amounts (≈) assume the structure as drawn. Read-outs that look alike come from different tables or passages of the source.

Columns and labels:
[1] = tested on: MRSA; test: Minimum bactericidal concentration (MBC) with and without white light; type: cell-based, S. aureus; conditions: Staphylococcus aureus, light or radiation study
Procedure: The bacterial media was inoculated with bacteria and incubated overnight. The bacterial cultures were diluted to 5×10^8 CFU/mL using a McFarland latex turbidity standard (0.5). Compound 1 was diluted with sterile DMSO, which was added to the cell suspension in glass culture tubes. The cells were then incubated for 30 minutes at 37° C. on a rotary shaking incubator at 150 rpm. 500 μL of the treated cell suspension was added to a well on a sterile ceramic drop plate. Non-coherent white light from a Lumacare™ LC-122 unit was used to irradiate the samples. The end of the light probe was placed 3 cm above the sample well, perpendicular to the surface of the sample, and light was applied for 2 minutes (15 seconds light, 15 seconds dark). 200 μL of the irradiated sample was transferred to a 96-well plastic microtiter plate and five ten-fold dilutions were made in the media. 10 μL of each dilution was dripped onto an agar media plate and was allowed to streak down the plate by tilting the plate down. The agar plates were incubated at 37° C. overnight and colony counts were performed to calculate the CFU/mL.
TABLE 14 details the MBC values of compounds 1-6 against MRSA with and without irradiation with white light. Irradiation involved treatment with a LumaCare™ light source at 3 cm from media for 1 min.

[2] = tested on: MES-SA/Dx5 (human uterine sarcoma grown in presence of doxorubicin); test: Light-activated killing of cell lines (IC50 with/without light); type: cell-based; conditions: Homo sapiens
Procedure: (§1) TABLE 15 depicts the IC50 of compounds in the presence or absence of light for human cell lines. The cell lines used were HeLa (human cervical adenocarcinoma), U-87 MG (human brain gliobastoma), MES-SA (human uterine sarcoma), MES-SA/D×5 (human uterine sarcoma grown in presence of doxorubicin), NCI-H441 (human lung papillary adenocarcinoma), A549 (human lung carcinoma), WI-38 (human embryonic lung normal), MCF7 (human breast adenocarcinoma), SW1088 (human brain astrocytoma), B16F10 (mouse skin melanoma), NIH-3T3 (mouse fibroblast), and Jurkat (human lymphoblastoma). “1-Sol” in TABLE 15 was generated by dissolving compound 1 and potassium hydroxide at a 1:1 ratio in a DMSO/water solution. The cells were irradiated with continuous white light using a LumaCare™ light source for 2 minutes at a distance of 6.5 cm from the cells.

[3] = tested on: U-87 MG (human brain gliobastoma); test: as above; type: cell-based
Procedure: as §1

[4] = MIC against MRSA isolates; type: cell-based, S. aureus; conditions: Staphylococcus aureus
Procedure: The MICs of S. aureus ATCC 33591, BAA-44, BAA-1707, BAA-1717, BAA-1720, BAA-1747, BAA-1754, BAA-1761, BAA-1763, BAA-1764, and BAA-1766 were measured using a cell concentration of about 5×10^5 colony forming units (CFU)/mL. In a 96-well microtiter plate, two-fold dilutions were made of each drug (starting with 100 μM) in 100 μL of a cell suspension in trypticase soy broth (TSB). The samples were incubated overnight at 37° C. on a rotary shaking incubator set at 100 revolutions per minute (rpm) and were visually inspected for turbidity. A 20% well-volume of 3-(4,5-dimethylthiazol-2-yl)-2,5-diphenyltetrazolium bromide (MTT reagent, 5 mg/mL) was added, and the samples were incubated for about 20 minutes. The MICs were determined as the lowest concentration at which full visual inhibition was observed by the unaided eye.

[5] = tested on: VRE; test: MIC against VRE; type: cell-based, Enterococcus faecalis; conditions: for MIC: Enterococcus
Procedure: In a 12×75 mm borosilicate glass culture tube, 1 mL of cell suspension was added. Then, compound 7 was added to the cells, and the samples were mixed using a vortex mixer. […] The samples were incubated overnight at 37° C. on a rotary shaking incubator at 100 rpm.

[6] = tested on: S. aureus (ATCC 29213); test: MIC against drug sensitive S. aureus; type: cell-based; conditions: Staphylococcus aureus, ATCC29213; ATCC 29213; read-out: S. aureus MIC
[7] = tested on: S. aureus (ATCC 29213); test: microbe, parasite or virus in culture; type: cell-based; conditions: for MIC: Staphylococcus aureus
Procedure: Each mixture was incubated at 37° C. on a rotary shaking incubator for about 16 hours. MTT was then added to assess the viability of the cells (at 10% well volume). […] The cells were then streaked onto a TSA plate and incubated overnight at 37° C. These steps were repeated to reach a total of 30 exposures.

[8] = tested on: E. coli; test: MIC against E. coli; type: cell-based
Source text: TABLE 18 details the obtained MIC values for cells treated with compound 1, light, PMB, and Polymyxin E (PME) against E. coli.

[9] = tested on: P. aeruginosa; test: MIC against P. aeruginosa; type: cell-based
Source text: Only compound 1 was able to decrease the CFU/mL when used in conjunction with white light to treat P. aeruginosa.

[10] = tested on: E. cloacae ATCC BAA-2341; test: MIC of PMB and PME; type: cell-based
Source text: (§2) TABLE 25 details the MICs of PMB and PME against E. cloacae and K. pneumoniae.

[11] = tested on: K. pneumoniae ATCC BAA-2341; test: MIC of PMB and PME; type: cell-based; conditions: K. pneumoniae ATCC BAA-2341 (so in the source)
Source text: as §2

[12] = tested on: Klebsiella pneumoniae (CRE, ATCC BAA-1705); test: MIC against CRE; type: cell-based
Procedure: TABLE 27 details the individual MIC values of compounds 1, 7, 8, 9, 10, 11, PMB, PME, and light against CRE.
The MICs of PME and compounds 8-11 were determined against Klebsiella pneumoniae (CRE, ATCC BAA-1705). […] After the incubation with PME, the compounds were added at a concentration of 20 μM, and the samples were further incubated. At specific time points, the samples were taken and diluted ten-fold in media. Ten microliters of each dilution was then drip-streaked onto an agar plate and incubated overnight at 37° C. Colony counts were then performed and the CFU/mL were calculated.

[13] = tested on: A. baumannii (ATCC 15151); test: MIC against A. baumannii; type: cell-based
Procedure: TABLE 28 details the individual MIC values of compounds 1, 7, 8, 9, 10, 11, PMB, PME, and light against A. baumannii.
The MICs of PME and compounds 8-11 were determined against A. baumannii (ATCC 15151). […] After incubating the cells with PME, a compound (5 μM) was added, and the samples were further incubated at 37° C. At specific time points, samples were taken and diluted ten-fold in media. Ten microliters of each dilution was then drip-streaked onto an agar plate and incubated overnight at 37° C. Colony counts were then performed, and the CFU/mL were calculated.

`Fc1ccc(/C=C/c2[nH]c3ccccc3c2/C=C/c2ccc(F)cc2)cc1` [Compound 4] gave an MBC ([1]; 1 min, LumaCare light source at 3 cm from media for 1 min, read-out: MBC with irradiation) of 0.5 µM (≈ 0.179 µg/mL), an MBC ([1]; no irradiation, read-out: MBC in the dark) of 100 µM (≈ 35.7 µg/mL) and an IC50 ([2]; MES-SA/Dx5, 2 min, MES-SA/Dx5 (no doxorubicin), white light 2 minutes, read-out: Compound + light IC50) of 1.31 ± 0.51 µM. For the same molecule, the IC50 ([2]; MES-SA/Dx5, 2 min, MES-SA/Dx5 + doxorubicin, white light 2 minutes, read-out: Compound + light IC50) was 0.67 ± 0.01 µM, the IC50 ([2]; MES-SA/Dx5, MES-SA/Dx5 (no doxorubicin), no light, read-out: Compound IC50) was 57.2 ± 10.3 µM and the IC50 ([2]; MES-SA/Dx5, MES-SA/Dx5 + doxorubicin, no light, read-out: Compound IC50) was 40.9 ± 1.36 µM. The IC50 ([3]; 2 min, white light 2 minutes, read-out: Compound + light IC50) was 1.01 ± 0.16 µM and the IC50 ([3]; no light, read-out: Compound IC50) was 42.6 ± 5.53 µM.

`CCn1cc(C(=O)O)c(=O)c2cc(F)c(N3CCNCC3)cc21` [Norfloxacin, reference compound] gave an MIC ([4]; MRSA (ATCC BAA-44), TABLE 21, read-out: MRSA MIC) of 100 µg/mL (≈ 313 µM), an MIC ([4]; antibiotics, MRSA isolate ATCC 33591, read-out: MIC) of 25 µg/mL (≈ 78.3 µM) and an MIC ([4]; antibiotics, MRSA isolate ATCC BAA-44, read-out: MIC) of 100 µg/mL (≈ 313 µM). The MIC ([4]; antibiotics, MRSA isolate ATCC BAA-1707, read-out: MIC) was < 3.1 µg/mL, the MIC ([4]; antibiotics, MRSA isolate ATCC BAA-1720, read-out: MIC) was > 100 µg/mL and the MIC ([4]; antibiotics, MRSA isolate ATCC BAA-1747, read-out: MIC) was 6.3 µg/mL (≈ 19.7 µM). For the same molecule, the MIC ([4]; antibiotics, MRSA isolate ATCC BAA-1754, read-out: MIC) was < 3.1 µg/mL, the MIC ([4]; antibiotics, MRSA isolate ATCC BAA-1761, read-out: MIC) was > 100 µg/mL and the MIC ([4]; antibiotics, MRSA isolate ATCC BAA-1763, read-out: MIC) was > 100 µg/mL. The MIC ([4]; antibiotics, MRSA isolate ATCC BAA-1764, read-out: MIC) was < 3.1 µg/mL, the MIC ([4]; antibiotics, MRSA isolate ATCC BAA-1766, read-out: MIC) was < 3.1 µg/mL and the MIC ([5]; TABLE 23, read-out: VRE MIC) was 2.5 µg/mL (≈ 7.83 µM). For the same molecule, the MIC ([5]; common antibiotics, TABLE 24, read-out: MIC) was 1 µg/mL (≈ 3.13 µM), the S/R ([5]; TABLE 24) was “S” and the MIC [6] was 1.25 to 2.5 µg/mL (≈ 3.91 to 7.83 µM). The “Resistance Evolved” value [7] was “Yes”, the MIC ([7]; ATCC29213, read-out: Final MIC Apr. 16, 2015) was > 16 µM and the MIC ([7]; ATCC29213, read-out: Initial MIC Mar. 10, 2015) was 2 µM (≈ 0.639 µg/mL).

With Polymyxin E [PME, reference compound] the “E. Coli MIC” value [8] was 2 µg/mL, the MIC [9] was 2 µg/mL and the MIC [10] was 16 µg/mL. For the same molecule, the MIC [11] was 16 µg/mL, the “CRE MIC” value [12] was 4 µg/mL and the “A. baumannii MIC” value [13] was 0.5 µg/mL.
